In US20230416239A1, “COMPOUNDS AND METHODS FOR TREATING A CYTOKINE-MEDIATED DISEASE” (CONSERVATOIRE NATIONAL DES ARTS ET MÉTIERS, priority 2020, published 2023):

Assays:
IL-4 = target: T1, IL-4 (Homo sapiens, UniProt P05112); assay: Immunoassay binding test, IL-4; details: for IC50: IL-4 400 ng/ml, receptor 100 ng/ml, read-out: BINDING IL4 IC50
T1 sequence (P05112 25-153): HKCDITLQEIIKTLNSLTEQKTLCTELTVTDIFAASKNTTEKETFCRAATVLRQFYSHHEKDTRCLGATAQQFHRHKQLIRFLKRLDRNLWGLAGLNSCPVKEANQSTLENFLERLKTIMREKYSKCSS
Procedure: (§1) Microtiter plates (96 wells) are covered with 100 μl of receptor per well, and incubated overnight at 4° C. The following day, after 2 washes in PBS/Tween20, the plates are saturated with 150 μl of PBS/BSA 2% per well, for 2 h at 37° C. Synthetic compounds are diluted in series (final concentrations: 100 to 0.78 μM) then a fixed amount of cytokine in PBS/BSA 1% is added to the compounds, in a final volume of 120 μl per well. […] The cytokine is diluted in series (six concentrations) in a final volume of 120 μl per well. The cytokine is used in the absence of small molecule as well as the range of SPD304 as positive controls and the absence of cytokine and synthetic molecule as negative control. The different mixtures are incubated for 2 h at 37° C. 100 μl of each mixture are then transferred to the microtiter plate, respecting the plate plan previously defined and incubated overnight at 4° C. After three washes, 100 μl of biotinylated anti-cytokine secondary antibody are added to each well, then incubated for 2 h at 37° C. After three washes, 100 μl of Avidin-HRP (1/500th dilution) are added and incubated for 30 minutes at 37° C. […] The plates are then read with a spectrophotometer at 450 nm, measuring the optical density for each well.
(§2) This binding test is carried out with different cytokines: TNFa, IL-4, IL-6 and IL-13. For IL-6, the incubation of molecules with the cytokine also requires the presence of IL-6Ra at a final concentration of 200 ng/ml.
(§3) The final concentrations used for each of the cytokines are presented below: […]

IL-6 = IL-6 (Homo sapiens, UniProt P05231); assay: Immunoassay binding test, IL-6 (gp130 receptor, IL-6Ra present); details: IL-6Ra 200 ng/ml
Procedure: as §1, §2, §3

TNFa/TNFRI interaction = TNFa/TNFRI interaction (Homo sapiens, UniProt P01375); assay: TNFa/TNFRI interaction displacement test; type: binding; details: for Displacement EC50 TNFa in presence of compound: Difference: Compound EC50 minus SPD304 EC50; for Displacement (%): compounds at 50 μM, human TNFRI 100 ng/ml;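 for Displacement EC50 TNFa in presence of compound: Difference: SPD304 reference at 20 µM final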
Procedure: Microtiter plates (96 wells) are covered with 100 μl per well of human TNFRI, at a concentration of 100 ng/ml, then incubated overnight at 4° C. The following day, after two washes in PBS/Tween20, the plates are saturated with 150 μl of PBS/BSA 2% for 2 h at 37° C.
100 μl of each mixture are then transferred to the microtiter plate, respecting the established plate plan and incubated overnight at 4° C.
After three washes, 100 μl of biotinylated anti-cytokine secondary antibody are added to each well and incubated for 2 h at 37° C. After three washes, 100 Avl Avidin-HRP (dilution 1/500th) are added and incubated for 30 minutes at 37° C. […] The plates are then read with a spectrophotometer at 450 nm, measuring the optical density (OD) for each well.

IL-13 = IL-13 (Homo sapiens, UniProt P35225); assay: Immunoassay binding test, IL-13; details: for IC50: IL-13 400 ng/ml, receptor 100 ng/ml, read-out: BINDING IL13 IC50
Procedure: as §1, with “The cytokine is used in the absence of small molecule as well as the range of SPD304 as positive controls and the absence of cytokine and synthetic molecule as negative control.” left out
as §2, §3

TNFα = TNFα (Homo sapiens, UniProt P01375); assay: Immunoassay binding test, TNFa; details: compounds 100 to 0.78 μM; TNFα 10 ng/ml, receptor 100 ng/ml; read-out: BINDING TNF IC50
Procedure: as §1, with “C.” for “C. Synthetic compounds are diluted in series (final concentrations: 100 to 0.78 μM) then a fixed amount of cytokine in PBS/BSA 1% is added to the compounds, in a final volume of 120 μl per well.”, “The cytokine is used in the absence of small molecule as well as the range of SPD304 as positive controls and the absence of cytokine and synthetic molecule as negative control.” left out
as §2, §3

IL-13, sequence (P35225 25-146, species assumed): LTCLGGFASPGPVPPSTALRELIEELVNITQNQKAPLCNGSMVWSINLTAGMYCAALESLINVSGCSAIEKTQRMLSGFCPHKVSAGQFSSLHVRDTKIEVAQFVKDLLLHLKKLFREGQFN
IL-6, sequence (P05231 30-212, species assumed): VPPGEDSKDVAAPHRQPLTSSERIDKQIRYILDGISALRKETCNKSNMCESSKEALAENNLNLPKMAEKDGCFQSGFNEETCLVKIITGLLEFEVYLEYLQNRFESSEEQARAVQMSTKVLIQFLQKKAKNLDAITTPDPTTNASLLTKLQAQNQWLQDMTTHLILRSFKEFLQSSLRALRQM
TNFa/TNFRI interaction, sequence (P01375 77-233 limits assumed): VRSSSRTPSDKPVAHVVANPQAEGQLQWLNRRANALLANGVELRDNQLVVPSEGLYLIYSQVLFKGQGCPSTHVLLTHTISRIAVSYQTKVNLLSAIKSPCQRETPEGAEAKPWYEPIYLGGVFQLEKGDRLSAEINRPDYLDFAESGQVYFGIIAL
TNFα, sequence (P01375 77-233 limits assumed, species assumed): as the sequence (P01375 77-233 limits assumed) above

SMILES	BINDING IL4 % Neutra at 100 μM (IL-4)	IC50 (IL-4)	BINDING IL6 % Neutra at 100 μM (IL-6)	Displacement EC50 TNFa in presence of compound: Difference (TNFa/TNFRI interaction)	Displacement (%) (TNFa/TNFRI interaction)	BINDING IL13 % Neutra at 100 μM (IL-13)	IC50 (IL-13)	IC50 (TNFα)
O=S(=O)(c1ccccc1)n1cc(CN(Cc2ccccn2)CC2CCCN(C3CCCCC3)C2)c2ccccc21 (stereo not drawn) [Compound 1]	97.5%	4.1 µM	5.5%	9.1 ng/mL	178%	94.6%	23.5 µM	11.9 µM
FC(F)(F)c1cccc(-n2cc(CN(Cc3ccccn3)CC3CCCN(C4CCCCC4)C3)c3ccccc32)c1 (stereo not drawn) [Compound 2]	97.8%	3.3 µM	2%	14.9 ng/mL	183%	97.1%	1.4 µM	19.9 µM
O=S(=O)(c1ccccc1)n1cc(CN(Cc2cccnc2)CC2CCCN(C3CCCCC3)C2)c2ccccc21 (stereo not drawn) [Compound 3]	96.4%	6.6 µM	5%	7.4 ng/mL	196%	96.9%	–	4.6 µM
FC(F)(F)c1cccc(-n2cc(CN(Cc3cccnc3)CC3CCCN(C4CCCCC4)C3)c3ccccc32)c1 (stereo not drawn) [Compound 4]	98.3%	4 µM	5.2%	Difference = 9 ng/ml	221%	92.2%	9.9 µM	21.3 µM
O=S(=O)(c1ccccc1)n1cc(CN(Cc2ccncc2)CC2CCCN(C3CCCCC3)C2)c2ccccc21 (stereo not drawn) [Compound 5]	96.9%	7.8 µM	2.1%	8.3 ng/mL	194%	84.9%	> 50 µM	11.1 µM
FC(F)(F)c1cccc(-n2cc(CN(Cc3ccncc3)CC3CCCN(C4CCCCC4)C3)c3ccccc32)c1 (stereo not drawn) [Compound 6]	95.7%	3.6 µM	8.7%	3.4 ng/mL	153%	98.6%	3.1 µM	16.6 µM
CN(CCCCN(Cc1ccc(F)nc1)Cc1cn(S(=O)(=O)c2ccccc2)c2ccccc12)C1CCCCC1 [Compound 57, N1-cyclohexyl-N4-((6-fluoropyridin-3-yl)methyl)-N1-methyl-N4-((1-(phenylsulfonyl)-1H-indol-3-yl)methyl)butane-1,4-diamine]	–	–	–	–	113%	–	–	9.4 µM
CCCN(CCCCN(Cc1cccnc1F)Cc1cn(S(=O)(=O)c2ccccc2)c2ccccc12)C1CCCCC1 [Compound 67, N′-cyclohexyl-N^4-((2-fluoropyridin-3-yl)methyl)-N^4-((1-(phenylsulfonyl)-1H-indol-3-yl)methyl)-N′-propylbutane-1,4-diamine]	–	–	–	–	219%	–	–	6.7 µM
CN(CCCCN(Cc1cccnc1F)Cc1cn(S(=O)(=O)c2ccccc2)c2ccccc12)C1CCCCCCC1 [Compound 76, N′-cyclooctyl-N^4-((2-fluoropyridin-3-yl)methyl)-N′-methyl-N^4-((1-(phenylsulfonyl)-1H-indol-3-yl)methyl)butane-1,4-diamine]	92.8%	4.6 µM	1%	–	154%	–	–	7.9 µM
CN(CCCCN(Cc1cccnc1F)Cc1cn(S(=O)(=O)N2CCCC2)c2ccccc12)C1CCCCC1 [Compound 110, N1-cyclohexyl-N4-((2-fluoropyridin-3-yl)methyl)-N1-methyl-N4-((1-(pyrrolidin-1-ylsulfonyl)-1H-indol-3-yl)methyl)butane-1,4-diamine]	–	–	–	–	83%	–	–	17 µM
CN1CCN(S(=O)(=O)n2cc(CN(CCOCCN(C)C3CCCCC3)Cc3cccnc3F)c3ccccc32)CC1 [Compound 111, N-(2-(2-(((2-fluoropyridin-3-yl)methyl)((1-((4-methylpiperazin-1-yl)sulfonyl)-1H-indol-3-yl)methyl)amino)ethoxy)ethyl)-N-methylcyclohexanamine]	–	–	–	–	224%	–	–	6 µM
CN(CCOCCN(Cc1cccnc1F)Cc1cn(S(=O)(=O)N2CCCCC2)c2ccccc12)C1CCCCC1 [Compound 112, N-(2-(2-(((2-fluoropyridin-3-yl)methyl) ((1-(piperidin-1-ylsulfonyl)-1H-indol-3-yl)methyl)amino)ethoxy)ethyl)-N-methylcyclohexanamine]	–	–	–	–	245%	–	–	13 µM

Other lines, results leading:

BINDING IL4 % Neutra at 100 μM (IL-4)	IC50 (IL-4)	BINDING IL6 % Neutra at 100 μM (IL-6)	Displacement EC50 TNFa in presence of compound: Difference (TNFa/TNFRI interaction)	Displacement (%) (TNFa/TNFRI interaction)	BINDING IL13 % Neutra at 100 μM (IL-13)	IC50 (IL-13)	IC50 (TNFα)	SMILES
97.3%	8.5 µM	3.3%	7.8 ng/mL	146%	86.2%	> 50 µM	9.4 µM	O=S(=O)(c1ccccc1)n1cc(CN(CCCNC2CCCCC2)Cc2cccnc2)c2ccccc21 [Compound 7]
–	–	–	–	109%	–	–	8.6 µM	O=S(=O)(c1ccccc1)n1cc(CN(CCCCNC2CCCCC2)Cc2ccnc(F)c2)c2ccccc21 [Compound 44, N1-cyclohexyl-N4-((2-fluoropyridin-4-yl)methyl)-N4-((1-(phenylsulfonyl)-1H-indol-3-yl)methyl)butane-1,4-diamine]
–	–	–	–	124%	–	–	10.8 µM	O=S(=O)(c1ccccc1)n1cc(CN(CCCCCNC2CCCCC2)Cc2cccnc2F)c2ccccc21 [Compound 46, N1-cyclohexyl-N5-((2-fluoropyridin-3-yl)methyl)-N5-((1-(phenylsulfonyl)-1H-indol-3-yl)methyl)pentane-1,5-diamine]
–	–	–	–	172%	–	–	7.8 µM	O=S(=O)(c1ccccc1)n1cc(CN(CCCCNC2CCCCC2)Cc2ccc(F)nc2)c2ccccc21 [Compound 55, N1-cyclohexyl-N4-((6-fluoropyridin-3-yl)methyl)-N4-((1-(phenylsulfonyl)-1H-indol-3-yl)methyl)butane-1,4-diamine]
–	–	–	–	64%	–	–	29.8 µM	O=S(=O)(c1ccccc1)n1cc(CN(CCCCCNCc2ccnc(F)c2)Cc2ccnc(F)c2)c2ccccc21 [Compound 61]
